In paper PMC6113202:

Experiments:
[1] = system: Scram (DNA, duplex) GTCGTTCTGATCCAGGTGATGTAGTCGACG/CGTCGACTACATCACCTGGATCAGAACGAC; experiment: fluorescence turn-on; conditions: KCl 150 mM in p53 buffer (80% v/v); NaCl 50 mM in DNA buffer (15% v/v); NaPi pH 7.2, DTT, Tris-HCl, 5% DMSO; room temperature; dye 100 nM
[2] = system: hairpin p21 RE (DNA, hairpin) GAAGAAGACTGGGCATGTCTAAAAAAGACATGCCCAGTCTTCTTC; experiment: fluorescence titration; conditions: KCl 150 mM in p53 buffer (80% v/v), NaCl 50 mM in DNA buffer (15% v/v), per base pair, approximate, NaPi pH 7.2, DTT, Tris-HCl, room temperature, dye 100 nM
[3] = system: pDINP1 (DNA, duplex) TTATAGAACTTGGGGGAACATGTTTACCAA/TTGGTAAACATGTTCCCCCAAGTTCTATAA; experiment: fluorescence turn-on heat map; conditions: KCl 150 mM in p53 buffer (80% v/v); NaCl 50 mM in DNA buffer (15% v/v); 4 μM dye, 250 nM DNA; NaPi pH 7.2, DTT, Tris-HCl, 5% DMSO; room temperature
[4] = system: IGF-BP3 (DNA, duplex) CTAGAAAACAAGCCACCAACATGCTTGCATG/CATGCAAGCATGTTGGTGGCTTGTTTTCTAG; experiment: fluorescence turn-on heat map; conditions: KCl 150 mM in p53 buffer (80% v/v); NaCl 50 mM in DNA buffer (15% v/v); 4 μM dye, 250 nM DNA; NaPi pH 7.2, DTT, Tris-HCl, 5% DMSO; room temperature
[5] = system: p21 (DNA, duplex) TAGAGGAAGAAGACTGGGCATGTCTGGGCA/TGCCCAGACATGCCCAGTCTTCTTCCTCTA; experiment: fluorescent intercalator displacement by p53; conditions: KCl 150 mM in p53 buffer (80% v/v); NaCl 50 mM in DNA buffer (15% v/v); 1 μM DNA, 10 μM dye; dye displaced by p53; NaPi pH 7.2, DTT, Tris-HCl, 5% DMSO
[6] = system: RGC (DNA, duplex) CACATGCCTTGCCTGGACTTGCCT/AGGCAAGTCCAGGCAAGGCATGTG; experiment: fluorescent intercalator displacement by p53; conditions: KCl 150 mM in p53 buffer (80% v/v); NaCl 50 mM in DNA buffer (15% v/v); 1 μM DNA, 10 μM dye; dye displaced by p53; NaPi pH 7.2, DTT, Tris-HCl, 5% DMSO
p53-WT [7] = target: T1, p53-WT (UniProt P04637 94-360); experiment: fluorescent intercalator displacement; AO-R; strongest displacement of panel; 1 uM DNA, 10 uM dye; 5% DMSO, 80% p53 buffer (25 mM NaPi pH 7.2, 150 mM KCl, 4 mM DTT), 15% DNA buffer (10 mM Tris-HCl pH 8.0, 50 mM NaCl); room temperature (stated for rotor-DNA mixtures); conditions: protein: recombinant; tags: N-terminal His6; chain copies: 4; blunt
p53-WT [8] = target: T1, p53-WT; experiment: fluorescent intercalator displacement; AO-R; p53 concentration-dependent; 1 uM DNA, 10 uM dye; 5% DMSO, 80% p53 buffer (25 mM NaPi pH 7.2, 150 mM KCl, 4 mM DTT), 15% DNA buffer (10 mM Tris-HCl pH 8.0, 50 mM NaCl); room temperature (stated for rotor-DNA mixtures); conditions: protein: recombinant; tags: N-terminal His6; chain copies: 4; blunt
p53-WT [9] = target: T1, p53-WT; experiment: fluorescent intercalator displacement; AO-R; almost no displacement; 1 uM DNA, 10 uM dye; 5% DMSO, 80% p53 buffer (25 mM NaPi pH 7.2, 150 mM KCl, 4 mM DTT), 15% DNA buffer (10 mM Tris-HCl pH 8.0, 50 mM NaCl); room temperature (stated for rotor-DNA mixtures); conditions: protein: recombinant; tags: N-terminal His6; chain copies: 4; blunt

T1 sequence (P04637 94-360): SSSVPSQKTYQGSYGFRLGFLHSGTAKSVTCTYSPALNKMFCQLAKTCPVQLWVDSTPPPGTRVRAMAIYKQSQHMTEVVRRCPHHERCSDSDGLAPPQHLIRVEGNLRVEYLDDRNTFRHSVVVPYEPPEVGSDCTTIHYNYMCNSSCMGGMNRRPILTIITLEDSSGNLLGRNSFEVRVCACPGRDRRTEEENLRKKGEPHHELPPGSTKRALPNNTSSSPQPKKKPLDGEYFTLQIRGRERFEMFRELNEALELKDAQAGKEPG

Molecule: CN1C(=Cc2cc[n+](CCCN)c3ccccc23)Sc2ccccc21
- binding [1]: yes

Molecule: CN(C)c1ccc2cc3ccc(N(C)C)cc3nc2c1
- binding [1]: yes
- Kd [2]: 12.5 ± 1.0 µM

Molecule: C[n+]1ccc(/C=C/c2ccc(-n3c4ccc(/C=C/c5cc[n+](C)cc5)cc4c4cc(/C=C/c5cc[n+](C)cc5)ccc43)cc2)cc1
- binding [3]: yes
- binding [4]: yes

Molecule: C[n+]1ccc(/C=C/c2ccc3c(c2)c2cc(/C=C/c4cc[n+](C)cc4)ccc2n3-c2ccccc2)cc1
- binding [1]: yes
- binding [3]: yes
- binding [4]: yes

Molecule: CC[n+]1c(-c2ccccc2)c2cc(N)ccc2c2ccc(N)cc21
- binding [1]: yes

Molecule: CN1C(=Cc2cc[n+](C)c3ccccc23)Sc2ccccc21
- binding [1]: yes

Molecule: CN(C)c1ccc2cc3ccc(N(C)C)c(/C=C(\C#N)C(=O)O)c3nc2c1
- binding [1]: yes
- Kd [2]: 4.8 ± 0.8 µM
- binding [5]: yes
- binding [6]: yes

B1: Con-A (dsDNA)
DNA 1: GGGCATGTCCGGGCATGTCC
DNA 2: GGACATGCCCGGACATGCCC
- binding result (p53-WT [7]): binds

B2: p21 RE (dsDNA)
DNA 1: TAGAGGAAGAAGACTGGGCATGTCTGGGCA
DNA 2: TGCCCAGACATGCCCAGTCTTCTTCCTCTA
- binding result (p53-WT [8]): binds

B3: RGC RE (dsDNA)
DNA 1: CACATGCCTTGCCTGGACTTGCCT
DNA 2: AGGCAAGTCCAGGCAAGGCATGTG
- binding result (p53-WT [8]): binds

B4: Scram (dsDNA)
DNA 1: GTCGTTCTGATCCAGGTGATGTAGTCGACG
DNA 2: CGTCGACTACATCACCTGGATCAGAACGAC
- binding result (p53-WT [9]): no binding
